Reference: patent publication US20070148448A1, “Microencapsulated delivery vehicles including cooling agents” (Kimberly-Clark Worldwide, Inc., priority 2005, published 2007)

System: Methicillin-resistant Staphylococcus aureus
Settings: 0.005% (by weight) active PHMB
Experimental: This Example utilized 1.5-milliliter tubes containing a 1-milliliter blend of phosphate-buffered saline (pH 7.2) and 5% (w/v) bovine serum albumin soil. The tubes were placed in electric heat blocks set for 22° C., 30° C., 40° C. and 50° C., respectively. The tubes remained in the electric heat blocks for approximately 10 minutes.
Duplicate tubes without PHMB at each temperature were also made.
All of the tubes were then placed back into the heat blocks at their respective temperatures. […] The letheen samples were then plated in duplicate on Tryptic Soy agar plates using a WASP2 spiral plater (commercially available from Don Whitley Scientific, Ltd., Yorkshire, United Kingdom).
After 48 hours, the plates were evaluated using a total plate count to determine the biocidal efficacy of each sample.

polyhexamethylene biguanide [PHMB]
difference in efficacy between 22° C. and 50° C.: greater than 1.4 LOG,o
